Measured values published in article PMC5622171 (Nature Communications, 2017).
“Also recorded” adds a separate entry of the source.

What was measured:
hCAR = target: T1, hCAR (Homo sapiens, UniProt Q14994); test: hCAR transactivation assay, inverse agonistic mode; type: cell-based
T1 construct: expressed in transfected cells; host or cells: HepG2
Procedure: The hCAR transactivation assays were performed as described previously[48]. […] The relative luciferase activity was determined by normalizing the firefly luciferase signal to the Renilla luciferase signal and was used to represent the ‘relative activity of CAR’. The final DMSO concentration was 0.4% in all assays.

mPXR = target: T2, mPXR (Mus musculus, UniProt O54915); test: mPXR transactivation assay; type: cell-based; settings: only at concentrations higher than 5 µM
T2 construct: host or cells: Hepa 1-6
T2 sequence (O54915 whole entry): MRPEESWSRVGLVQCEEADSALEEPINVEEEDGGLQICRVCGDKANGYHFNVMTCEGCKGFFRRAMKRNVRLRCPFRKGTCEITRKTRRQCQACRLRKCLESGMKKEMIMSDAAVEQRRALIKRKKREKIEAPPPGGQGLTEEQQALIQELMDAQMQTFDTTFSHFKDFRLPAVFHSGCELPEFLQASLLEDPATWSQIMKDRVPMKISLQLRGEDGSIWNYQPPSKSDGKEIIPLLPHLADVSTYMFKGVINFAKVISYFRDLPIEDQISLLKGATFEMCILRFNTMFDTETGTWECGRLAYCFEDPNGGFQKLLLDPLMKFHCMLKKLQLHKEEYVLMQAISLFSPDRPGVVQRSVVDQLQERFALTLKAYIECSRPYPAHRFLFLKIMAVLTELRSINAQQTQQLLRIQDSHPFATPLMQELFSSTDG
Procedure: For the mPXR transactivation assay, Hepa 1-6 cells were co-transfected with pCMV6-mPXR (Cat. No. MR226044, OriGene Technologies, Rockville, MD), pGL3-CYP3A4-luc and pRL-TK by using Lipofectamine 3000. […] The relative luciferase activity was determined by normalizing the firefly luciferase signal to the Renilla luciferase signal. The final DMSO concentration was 0.3% in all assay wells. In the agonistic assays, 10 μM PCN and DMSO were used as the positive (100% activation) and negative control (0% activation), respectively. […] Compound activity was normalized to the controls.

LXRβ = LXRβ (Homo sapiens, UniProt P55055); test: GeneBLAzer NR-UAS-bla HEK 293 T assay; type: cell-based; settings: antagonistic mode; only at concentrations higher than 5 µM
Sequence of LXRβ (P55055 222-460 limits assumed): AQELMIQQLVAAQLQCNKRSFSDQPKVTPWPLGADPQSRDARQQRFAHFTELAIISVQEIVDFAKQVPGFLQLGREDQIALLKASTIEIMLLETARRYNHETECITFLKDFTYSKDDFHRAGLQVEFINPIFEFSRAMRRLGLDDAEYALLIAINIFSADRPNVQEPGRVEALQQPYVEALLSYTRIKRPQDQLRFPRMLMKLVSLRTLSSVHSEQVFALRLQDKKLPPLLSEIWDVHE
Procedure: The assays were performed in accordance with the manufacturer’s instructions, with minor modifications as reported previously[48]–[50]. Briefly, positive control (as described for each assay), DMSO, and dilutions of test chemicals either alone (for agonistic assays) or in combination with an approximately EC80 concentration of a specific agonist (for antagonistic assays) were incubated with an optimized number of cells for each assay in wells of black 384-well tissue culture-treated clear-bottom plates with 30 µl of the respective assay medium in a 37 °C cell-culture incubator. A group of wells containing assay medium and DMSO, but no cells, served as a background control. The final DMSO concentration was 0.5% for all wells.

HEK293 cells = test: One- and 3-day cytotoxicity assay; type: cell-based, human; settings: HEK293, one- and 3-day
Procedure: (§1) After the plated had been incubated for 24 or 72 h at 37 °C, the cytotoxicity was determined using a CellTiter-Glo luminescent cell viability assay (Promega). […] The final DMSO concentration was 0.5% for all wells.

HepG2 cells = test: One- and 3-day cytotoxicity assay; type: cell-based, human; settings: HepG2, one- and 3-day
Procedure: as §1

[1] = test system: hPXR transcriptional target genes; test: DNA microarray analysis in primary human hepatocytes; type: cell-based; settings: 2.5 μM SPA70, 48 h
Text: In each case, total RNA was extracted using a Qiagen RNeasy Mini Kit and amplified and labeled by using an One-Color Low Input Quick Amp Labeling Kit (Agilent, Santa Clara, CA, catalog no. 5190-2305), after which it was hybridized to the SurePrint G3 Human GE 8 × 60 K microarray (Agilent-028004), which contains 42,545 unique probes targeting 27,958 Entrez genes. Microarrays were scanned with an Agilent array scanner (G2565CA) at 3-μm resolution. Microarray data were extracted by Agilent Feature Extraction software (v10.5.1.1). Quantile normalization of log-transformed, background-subtracted signal intensity was performed for all samples. This was followed by comparisons between sets of replicates from different experimental groups. Student’s t-test was used to determine the statistical significance of the difference between the paired samples from three replicates of each experiment. […] The data processing and PCA analysis were performed using Partek software (St. Louis, MO)[52]. The GEO accession number for the microarray analysis is GSE90122.

CYP3A4 promoter = test: hPXR-CYP3A4-luc reporter mice (hydrodynamic injection), bioluminescence imaging; type: in vivo, mouse; settings: transient transgenic mice, SPA70 150 mg kg−1, RIF 10 mg kg−1
Procedure: For the hydrodynamic injections, treatment, and in vivo imaging, in vivo delivery of the CYP3A4-luc reporter gene and the hPXR gene into mouse liver was performed using the hydrodynamic injection method described previously, [53], [54]. Briefly, by a rapid (5–10 s) tail-vein injection, each mouse received 25 μg of linearized CYP3A4-luc plasmid DNA with linearized hPXR plasmid DNA in sterile saline in a volume equal to 10% of its body weight. Imaging for luciferase activity was performed 2–8 weeks after somatic gene transfer (the bioluminescence was stable in the mice during the 2–8 weeks period). Fifteen mice were given i.p. injections of VivoGlo luciferin (Promega) (150 mg kg^−1 of body weight), anesthetized with 2.5% isoflurane, and imaged 10 min later in a Xenogen IVIS 200 system (Xenogen) to obtain a basal image. […] The mice were imaged 10 h after the last treatment in each round. The Living Image 3.2 software (Xenogen) was used to analyze the total photon flux of uniform regions of interest drawn around the liver. The CYP3A4-luc reporter activity (expressed as induction rate) was determined by using the total photon flux from the same mouse before and after treatment: induction rate = total photon flux (after treatment)/total photon flux (before treatment).

Cyp3a11 = test: Loss of righting reflex (LORR) assay in hPXR-tg mice; type: in vivo, mouse; settings: hPXR humanized mice, SPA70 200 mg kg−1 i.p., RIF 10 mg kg−1
Procedure: The LORR assay method has been described previously, by using 2,2,2-tribromoethanol, a substrate of mouse Cyp3a11 which is induced by hPXR. Mice were first injected intraperitoneally with 250 mg kg^−1 of 2,2,2-tribromoethanol, then placed on their backs under a heat lamp as soon as they lost their righting reflex. The LORR duration was defined as the time period from the start of LORR to when mice could right themselves twice within 1 min, after being placed on their backs. For each mouse, a baseline LORR duration was first established before oral administration of vehicle or compounds. […] A paired Student’s t-test was used to compare the LORR duration at baseline and after treatment. A P-value of less than 0.05 was considered to indicate a significant difference between the compared groups.

hPXR = target: T3, hPXR (Homo sapiens, UniProt O75469); test: hPXR transactivation assay using transient transfection in LS180 cells; type: cell-based; design: expressed in transfected cells; settings: SPA70 10 μM, SJB7 4 μM
T3 sequence (O75469 1-434): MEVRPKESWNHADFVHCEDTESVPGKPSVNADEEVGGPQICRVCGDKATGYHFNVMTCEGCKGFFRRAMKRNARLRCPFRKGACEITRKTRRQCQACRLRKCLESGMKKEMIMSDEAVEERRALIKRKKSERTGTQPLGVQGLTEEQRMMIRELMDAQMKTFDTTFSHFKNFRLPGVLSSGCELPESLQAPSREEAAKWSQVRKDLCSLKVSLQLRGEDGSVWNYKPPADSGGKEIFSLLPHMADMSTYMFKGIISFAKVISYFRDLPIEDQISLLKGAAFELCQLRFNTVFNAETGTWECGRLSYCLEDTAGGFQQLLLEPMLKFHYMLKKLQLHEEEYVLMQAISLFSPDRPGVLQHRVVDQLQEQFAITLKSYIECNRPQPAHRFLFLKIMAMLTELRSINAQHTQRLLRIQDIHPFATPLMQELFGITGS
Procedure: The hPXR transactivation assay using transient transfection (agonist and antagonist modes) were performed as described previously. Briefly, LS180 cells were co-transfected with pGL3-CYP3A4-luc (CYP3A4-luciferase reporter) and pRL-TK (as a transfection control), together with pcDNA3, pcDNA3-hPXR, pcDNA3-hPXRM425A, or pcDNA3-hPXRF429A, by using FuGENE 6 (Roche). The pcDNA3-hPXR mutants (pcDNA3-hPXRM425A and pcDNA3-hPXRF429A) were obtained from Codex BioSolutions, Inc. (Gaithersburg, MD). Mutations were verified through nucleotide sequencing, using primers shown in Supplementary Table 3.

SNU-C4 cells = test: CellTiter-Glo cytotoxicity assay; settings: 10 µM SPA70
Procedure: For the LS180, SNU-C4 and LS1034 cytotoxicity assays, cells were seeded in a 96-well plate (Corning) at 4000 cells per well. […] Cell viability was assessed using the CellTiter-Glo assay.

T1 sequence (Q14994 whole entry): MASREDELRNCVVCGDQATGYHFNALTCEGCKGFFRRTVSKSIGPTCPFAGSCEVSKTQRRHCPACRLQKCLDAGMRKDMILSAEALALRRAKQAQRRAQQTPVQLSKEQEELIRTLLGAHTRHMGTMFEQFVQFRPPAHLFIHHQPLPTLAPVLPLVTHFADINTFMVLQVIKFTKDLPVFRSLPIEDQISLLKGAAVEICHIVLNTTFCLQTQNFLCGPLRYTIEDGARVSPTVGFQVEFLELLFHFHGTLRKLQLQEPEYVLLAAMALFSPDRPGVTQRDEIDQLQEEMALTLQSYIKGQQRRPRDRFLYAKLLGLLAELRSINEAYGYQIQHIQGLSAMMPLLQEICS

Compound: COc1ccc(OC)c(-n2nnc(S(=O)(=O)c3ccc(C(C)(C)C)cc3)c2C)c1 [SPA70]
- Effect on basal activity of CAR (hCAR): very weak CAR inverse agonist; also recorded: very weakly inhibited the basal activity
- mPXR agonism (mPXR): very weak mPXR agonist; also recorded: weak agonist of mPXR
- Effect on agonistic activity of T0901317 on LXRβ (LXRβ): weakly promoted the agonistic effect of T0901317 on LXRβ; also recorded: marginally increased the agonistic activity of T0901317 on LXRβ
- Cytotoxicity (HEK293 cells): marginal cytotoxicity
- Cytotoxicity (HepG2 cells): marginal cytotoxicity
- Effect on induction of hPXR transcriptional target genes by rifampicin, SR12813 and T090137 [1]: blocked their induction
- Effect on rifampicin-induced activation of the CYP3A4 promoter (CYP3A4 promoter): effectively blocked the rifampicin-induced activation of the CYP3A4 promoter
- Effect on rifampicin-induced metabolism of 2,2,2-tribromoethanol by Cyp3a11 (LORR) (Cyp3a11): effectively blocked
- Effect on activation of hPXR by SJB7 (hPXR): effectively block the activation of hPXR
- Sensitization of SNU-C4 cells to paclitaxel and vincristine (SNU-C4 cells): sensitizing the cells to paclitaxel and vincristine
